Details: composition applied with electroporation (Fusion Meso Xpert, ftrain 0.4 Hz, negative polarity) compared with topical application of an identical composition; human skin sample; FIG. 5
Description: To test the effect of the device, a sample of human skin is peripherally attached to a support, with the counterelectrode of the electroporation device placed between the inner face of the skin and the support. The electrode of the electroporation device is placed in contact with the outer face of the skin sample. The case of the electroporation device is immobilized by a support. The support is placed on an orbital shaker, so that the electrode moves over the surface of the skin.
The frequency (ftrain) with which the pulse trains follow each other is 0.4 Hz, the duration Ton ranges from 0.5 to 2 seconds, and the chosen polarity is negative, i.e. the electrode is at a negative potential with respect to the counterelectrode. The apparatus is used in the highest energy mode. […] The pulses of frequency fpulse are, for example, of maximum amplitude deltaV, within the pulse train, this amplitude deltaV being less than or equal to 30% of the voltage Vmean, as an absolute value.
The cosmetic compositions are applied before the apparatus is put in place.
Firstly, compositions 1 to 3 are applied topically, and secondly, the application of compositions 1 to 3 is combined with electroporation.
The skin is removed from the experimental system and then analysed to determine the amount of salicylic acid that has penetrated.

Q: For O=C(O)c1ccccc1O [salicylic acid], which “amount of salicylic acid that has penetrated” value is on record?
A: much higher
